Data set [1] in a line: physchem. Type of data set: physicochemical. The settings on record: thermodynamic from solid. The procedure: Assay 5: Solubility Assay in Organic Excipients The purpose of this assay was to quantify the solubility of test compounds in different organic excipients such as diisopropyl adipate, medium chain triglycerides (MCT), propylene glycol, and polyethylene glycol. The assay required 80 μL of 100 mM DMSO test compound solution per desired excipient in addition to 40 μL required to make a test standard. For example, to test a compound in all five […]) of 100 mM DMSO compound stock solution was required. The standard was created by diluting 40 μL of 100 mM DMSO compound stock solution into 160 μL of methanol and was shaken for five minutes to ensure solution uniformity. […] This 20,000 μM solution was run on an Agilent 1260 LC-MS system by injecting 0.2 μL in order to obtain the peak area. For the test solutions, 80 μL of 100 mM DMSO compound stock solution, per excipient, were dried down into a powder overnight. Once in powder form, 400 μL of the desired excipient was added to the powder and allowed to shake vigorously for four hours. The maximum theoretical concentration for this sample solution was 20,000 μM. After four hours of shaking, the samples were centrifuged for 10 minutes at 3,000 RPM before injecting 0.2 μL on the same Agilent 1260 LC-MS system to obtain the peak area. […] In Table 3 below, A represents a value above 10, B represents a value between 5 and 10, C represents a value below 5.

Data set [2] concerns the target T1, JAK3 (Homo sapiens, UniProt P52333).
T1 construct: GST; purchased Life Technologies
T1 sequence (P52333 1-1124): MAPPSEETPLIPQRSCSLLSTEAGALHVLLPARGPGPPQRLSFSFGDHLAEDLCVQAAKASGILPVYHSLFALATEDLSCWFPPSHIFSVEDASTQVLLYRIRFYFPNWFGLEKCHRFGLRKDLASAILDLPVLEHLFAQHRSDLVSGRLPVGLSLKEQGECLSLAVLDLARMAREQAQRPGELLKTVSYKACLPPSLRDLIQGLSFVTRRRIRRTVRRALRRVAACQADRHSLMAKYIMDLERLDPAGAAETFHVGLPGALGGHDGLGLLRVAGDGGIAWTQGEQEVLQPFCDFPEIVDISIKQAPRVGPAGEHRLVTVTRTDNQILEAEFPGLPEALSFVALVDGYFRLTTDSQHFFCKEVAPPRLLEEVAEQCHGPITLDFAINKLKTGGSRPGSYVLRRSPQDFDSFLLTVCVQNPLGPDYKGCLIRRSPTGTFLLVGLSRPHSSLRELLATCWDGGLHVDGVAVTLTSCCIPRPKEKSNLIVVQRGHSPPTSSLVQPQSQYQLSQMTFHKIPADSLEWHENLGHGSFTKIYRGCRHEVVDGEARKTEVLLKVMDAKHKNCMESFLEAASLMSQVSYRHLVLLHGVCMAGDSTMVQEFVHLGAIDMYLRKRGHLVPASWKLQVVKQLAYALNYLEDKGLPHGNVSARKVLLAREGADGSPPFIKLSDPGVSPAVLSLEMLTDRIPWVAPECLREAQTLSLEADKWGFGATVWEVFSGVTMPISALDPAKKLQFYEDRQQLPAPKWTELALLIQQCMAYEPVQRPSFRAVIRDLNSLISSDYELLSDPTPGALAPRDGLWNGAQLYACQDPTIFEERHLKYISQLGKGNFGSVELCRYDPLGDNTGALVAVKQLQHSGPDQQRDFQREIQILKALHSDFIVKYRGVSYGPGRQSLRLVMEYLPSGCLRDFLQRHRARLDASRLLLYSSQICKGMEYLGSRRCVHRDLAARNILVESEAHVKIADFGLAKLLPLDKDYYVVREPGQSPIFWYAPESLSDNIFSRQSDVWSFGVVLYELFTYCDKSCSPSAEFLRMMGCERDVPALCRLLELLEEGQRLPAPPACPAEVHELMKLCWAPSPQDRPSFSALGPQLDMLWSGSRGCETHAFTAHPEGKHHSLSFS
Description: Biochemical LanthaScreen JAK3 kinase assay. The following applies: Km ATP 1.6 μM; pKi from pIC50 by Cheng-Prusoff; read-out: JAK 3 (pKi) (converted). As to the method: Assay 1: Biochemical JAK and Tyk2 Kinase Assays A panel of four LanthaScreen JAK biochemical assays (JAK1, 2, 3 and Tyk2) were carried in a common kinase reaction buffer (50 mM HEPES, pH 7.5, 0.01% Brij-35, 10 mM MgCl2, and 1 mM EGTA). Recombinant GST-tagged JAK enzymes and a GFP-tagged STAT1 peptide substrate were obtained from Life Technologies. Serially or discretely diluted compounds were pre-incubated with each of the four JAK enzymes and the substrate in white 384-well microplates (Corning) at ambient temperature for 1 h. ATP was subsequently added to initiate the kinase reactions in 10 μL total volume, with 1% DMSO. […] Kinase reactions were allowed to proceed for 1 hour at ambient temperature before a 10 μL preparation of EDTA (10 mM final concentration) and Tb-anti-pSTAT1 ([…]) antibody (Life Technologies, 2 nM final concentration) in TR-FRET dilution buffer (Life Technologies) was added. The plates were allowed to incubate at ambient temperature for 1 h before being read on the EnVision reader (Perkin Elmer). Emission ratio signals (520 nm/495 nm) were recorded and utilized to calculate the percent inhibition values based on DMSO and background controls. For dose-response analysis, percent inhibition data were plotted vs. compound concentrations, and IC50 values were determined from a 4-parameter robust fit model with the Prism software (GraphPad Software). Results were expressed as pIC50 (negative logarithm of IC50) and subsequently converted to pKi (negative logarithm of dissociation constant, Ki) using the Cheng-Prusoff equation.
A general note: TR-FRET usually uses a lanthanide donor and a delayed reading to cut background.

Where [3] appears, read: oil or lipid, Solubility in MCT.
The mark [4] stands for this setting: organic solvent or mixture, Solubility in Diisopropyl adipate.
The mark [5] stands for this setting: organic solvent or mixture, Solubility in PEG400.
Where [6] appears, read: organic solvent or mixture, Solubility in Propylene glycol.
Setting [7] is: organic solvent or mixture, Solubility in Transcutol.

Converted amounts (≈) assume the structure as drawn. Some results are limits rather than exact numbers.

As to `CCS(=O)(=O)N1[C@@H]2CCC[C@H]1C[C@H](N(C)c1nc(COC(C)=O)c(F)c(Nc3cc(C)[nH]n3)n1)C2` [Compound 1, (2-(((1R,3s,5S)-9-(ethylsulfonyl)-9-azabicyclo[3.3.1]nonan-3-yl)(methyl)amino)-5-fluoro-6-((5-methyl-1H-pyrazol-3-yl)amino)pyrimidin-4-yl)methyl acetate], the solubility (commonly the concentration that dissolves in the medium under given conditions) at 4 h in data set [1] (setting [3]) is below 5000 µg/mL; in data set [1] (setting [4]), above 10000 µg/mL; in data set [1] (setting [5]), 5000 to 10000 µg/mL; in data set [1] (setting [6]) it was above 10000 µg/mL; in data set [1] (setting [7]), above 10000 µg/mL. Also, the Ki in data set [2] was 0.1 to 1 nM.

`CCC(=O)OCc1nc(N(C)[C@@H]2C[C@H]3CCC[C@@H](C2)N3S(=O)(=O)CC)nc(Nc2cc(C)[nH]n2)c1F` [Compound 2, (2-(((1R,3s,5S)-9-(ethylsulfonyl)-9-azabicyclo[3.3.1]nonan-3-yl)(methyl)amino)-5-fluoro-6-((5-methyl-1H-pyrazol-3-yl)amino)pyrimidin-4-yl)methyl propionate]: the solubility at 4 h in data set [1] (setting [3]) was below 5000 µg/mL; in data set [1] (setting [4]), above 10000 µg/mL; in data set [1] (setting [5]) it was above 10000 µg/mL; in data set [1] (setting [6]) it was above 10000 µg/mL; in data set [1] (setting [7]), above 10000 µg/mL. The Ki in data set [2] is 0.1 to 1 nM.

Take `CCCC(=O)OCc1nc(N(C)[C@@H]2C[C@H]3CCC[C@@H](C2)N3S(=O)(=O)CC)nc(Nc2cc(C)[nH]n2)c1F` [Compound 3, (2-(((1R,3s,5S)-9-(ethylsulfonyl)-9-azabicyclo[3.3.1]nonan-3-yl)(methyl)amino)-5-fluoro-6-((5-methyl-1H-pyrazol-3-yl)amino)pyrimidin-4-yl)methyl butyrate]: the solubility at 4 h in data set [1] (setting [3]) was below 5000 µg/mL; in data set [1] (setting [4]), above 10000 µg/mL; in data set [1] (setting [5]), above 10000 µg/mL; in data set [1] (setting [6]), above 10000 µg/mL; in data set [1] (setting [7]) it was above 10000 µg/mL. Besides, the Ki in data set [2] was 1 to 10 nM.

Take `CCCCC(=O)OCc1nc(N(C)[C@@H]2C[C@H]3CCC[C@@H](C2)N3S(=O)(=O)CC)nc(Nc2cc(C)[nH]n2)c1F` [Compound 4, (2-(((1R,3s,5S)-9-(ethylsulfonyl)-9-azabicyclo[3.3.1]nonan-3-yl)(methyl)amino)-5-fluoro-6-((5-methyl-1H-pyrazol-3-yl)amino)pyrimidin-4-yl)methyl pentanoate]: the solubility at 4 h was below 5000 µg/mL in data set [1] (setting [3]); above 10000 µg/mL in data set [1] (setting [4]); above 10000 µg/mL in data set [1] (setting [5]); below 5000 µg/mL in data set [1] (setting [6]); above 10000 µg/mL in data set [1] (setting [7]). The Ki in data set [2] was 1 to 10 nM.

Take `CCCCCCC(=O)OCc1nc(N(C)[C@@H]2C[C@H]3CCC[C@@H](C2)N3S(=O)(=O)CC)nc(Nc2cc(C)[nH]n2)c1F` [Compound 5, (2-(((1R,3s,5S)-9-(ethylsulfonyl)-9-azabicyclo[3.3.1]nonan-3-yl)(methyl)amino)-5-fluoro-6-((5-methyl-1H-pyrazol-3-yl)amino)pyrimidin-4-yl)methyl heptanoate]: the solubility at 4 h in data set [1] (setting [3]) was below 5000 µg/mL; in data set [1] (setting [4]), above 10000 µg/mL; in data set [1] (setting [5]), above 10000 µg/mL; in data set [1] (setting [6]), 5000 to 10000 µg/mL (≈ 8.62 to 17.2 mM); in data set [1] (setting [7]), above 10000 µg/mL. For the same compound, the Ki in data set [2] is 10 to 100 nM.

Turning to `CCS(=O)(=O)N1[C@@H]2CCC[C@H]1C[C@H](N(C)c1nc(COC(=O)OC3CCCCC3)c(F)c(Nc3cc(C)[nH]n3)n1)C2` [Compound 6, cyclohexyl ((2-(((1R,3s,5S)-9-(ethylsulfonyl)-9-azabicyclo[3.3.1]nonan-3-yl)(methyl)amino)-5-fluoro-6-((5-methyl-1H-pyrazol-3-yl)amino)pyrimidin-4-yl)methyl) carbonate], the solubility at 4 h was below 5000 µg/mL in data set [1] (setting [3]); above 10000 µg/mL in data set [1] (setting [4]); 5000 to 10000 µg/mL (≈ 8.42 to 16.8 mM) in data set [1] (setting [5]); 5000 to 10000 µg/mL (≈ 8.42 to 16.8 mM) in data set [1] (setting [6]); above 10000 µg/mL in data set [1] (setting [7]). In addition, the Ki in data set [2] is 10 to 100 nM.

With `CCS(=O)(=O)N1[C@@H]2CCC[C@H]1C[C@H](N(C)c1nc(COC(=O)C3CCOCC3)c(F)c(Nc3cc(C)[nH]n3)n1)C2` [Compound 7, (2-(((1R,3s,5S)-9-(ethylsulfonyl)-9-azabicyclo[3.3.1]nonan-3-yl)(methyl)amino)-5-fluoro-6-((5-methyl-1H-pyrazol-3-yl)amino)pyrimidin-4-yl)methyl tetrahydro-2H-pyran-4-carboxylate], the solubility at 4 h in data set [1] (setting [3]) was below 5000 µg/mL; in data set [1] (setting [4]), above 10000 µg/mL; in data set [1] (setting [5]), above 10000 µg/mL; in data set [1] (setting [6]) it was above 10000 µg/mL. Further, in data set [2], the Ki was 0.1 to 1 nM.

For the compound `CCS(=O)(=O)N1[C@@H]2CCC[C@H]1C[C@H](N(C)c1nc(COC(=O)OC(C)C)c(F)c(Nc3cc(C)[nH]n3)n1)C2` [Compound 8, (2-(((1R,3s,5S)-9-(ethylsulfonyl)-9-azabicyclo[3.3.1]nonan-3-yl)(methyl)amino)-5-fluoro-6-((5-methyl-1H-pyrazol-3-yl)amino)pyrimidin-4-yl)methyl isopropyl carbonate], the solubility at 4 h in data set [1] (setting [3]) is below 5000 µg/mL; in data set [1] (setting [4]) it was above 10000 µg/mL; in data set [1] (setting [5]), above 10000 µg/mL; in data set [1] (setting [6]), below 5000 µg/mL. Also, the Ki in data set [2] is 1 to 10 nM.

In the case of `CCS(=O)(=O)N1[C@@H]2CCC[C@H]1C[C@H](N(C)c1nc(COC(=O)OC3CCOCC3)c(F)c(Nc3cc(C)[nH]n3)n1)C2` [Compound 9, (2-(((1R,3s,5S)-9-(ethylsulfonyl)-9-azabicyclo[3.3.1]nonan-3-yl)(methyl)amino)-5-fluoro-6-((5-methyl-1H-pyrazol-3-yl)amino)pyrimidin-4-yl)methyl (tetrahydro-2H-pyran-4-yl) carbonate], the solubility at 4 h was below 5000 µg/mL in data set [1] (setting [3]), above 10000 µg/mL in data set [1] (setting [4]), above 10000 µg/mL in data set [1] (setting [5]) and above 10000 µg/mL in data set [1] (setting [6]). Besides, the Ki in data set [2] was 1 to 10 nM.

Take `CCS(=O)(=O)N1[C@@H]2CCC[C@H]1C[C@H](N(C)c1nc(CO)c(F)c(Nc3cc(C)[nH]n3)n1)C2` [Compound M, (2-(((1R,3s,5S)-9-(ethylsulfonyl)-9-azabicyclo[3.3.1]nonan-3-yl)(methyl)amino)-5-fluoro-6-((5-methyl-1H-pyrazol-3-yl)amino)pyrimidin-4-yl)methanol]: the solubility at 4 h in data set [1] (setting [3]) is below 5000 µg/mL; in data set [1] (setting [4]), below 5000 µg/mL; in data set [1] (setting [5]) it was below 5000 µg/mL; in data set [1] (setting [6]) it was below 5000 µg/mL; in data set [1] (setting [7]) it was above 10000 µg/mL. Further, the Ki in data set [2] is 0.1 to 1 nM.

The values are drawn from patent US11845747B2, “Ester and carbonate pyrimidine compounds as JAK kinase inhibitors” (priority 2019, dated 2023).
